pIC50: −log10 of the molar value. Each block holds one compound with its values, some of them ahead of it.
System: 565726-208-R1-J5-PDC complex spheroids, growth inhibition
Experiment: Anticancer human tumor 565726-208-R1-J5-PDC patient-derived pancreatic adenocarcinoma cell line growth inhibition [RAS]
Details: for pIC50: curve of first compound; for viability, T/C: stronger effect = lower value
Excerpt: RAS pathway inhibitors in Combinations in Complex Spheroids
A high-throughput screen of multi-cell type tumor spheroids was designed to identify active combinations of RAS pathway inhibitors and targeted small molecules. Complex spheroids include a stromal component modeled by human endothelial cells (HUVEC) and fibroblasts modeled by human mesenchymal stem cells (MSCs). The concentration ranges selected for each drug and investigational agent were based upon clinically achievable concentrations if the clinical Cmax of the agent was known.
Compounds. The drugs and investigational agents: abemaciclib (NSC768073), cobimetinib (NSC768068), divarasib (GDC6063, NSC841802), docetaxel (NSC628503), GDC-1971 (RLY-1971, NSC841576), gemcitabine (NSC613327), inavolisib (NSC800729), ipatasertib (NSC767898), KB-0742 (NSC834161), MRTX-1133 (NSC836407), osimertinib (NSC779217), RMC-4630 (NSC839698), RMC-6236 (NSC851965), RMC-6291 (NSC852671), Ro-3306 (NSC812927), sapanisertib (NSC764658), SN-38 (NSC673596), staurosporine (NSC755774), SY5609 (NSC837396), and tovorafenib (DAY101, NSC766906), were obtained from the National Cancer Institute (NCI) Developmental Therapeutics Program Chemical Repository. The FDA-approved anticancer drug set is available from the NCI Developmental Therapeutics Program. […] The stock solutions were prepared in dimethyl sulfoxide (DMSO, Sigma-Aldrich, St. Louis, MO, cat. D2650) at 800-fold the tested concentration and stored at -70 degrees C prior to their use. All drugs and investigational agents were tested over a range starting from a high concentration at or near the clinical Cmax and decreasing in half-log increments. If the clinical Cmax for an agent had not been determined, the highest concentration tested was 10 microM.
Cell Culture. All cells were maintained in an incubator at 37 degrees C and 5% CO2 with 95% humidity. The PDC lines were cultured according to standard operating procedures established by the NCI PDMR. All PDCs were thawed and cultured in Matrigel-coated flasks prepared with a working solution of 1X Ham's F-12 nutrient mix, without supplementation (Invitrogen, Waltham, MA, cat. 11765054), 100 U/mL penicillin-streptomycin (Invitrogen, cat. 15140122), and 2.5% Matrigel (Corning Inc., Corning, NY, cat. 354248) for the first three passages. The 362531-283-R-J2-PDC and 782815-120-R-J1-PDC lines were cultured in 6C/Colon 1B media, which includes advanced DMEM/F-12 (Thermo Fisher Scientific, cat. 12634028), 10 mM HEPES (Thermo Fisher Scientific, cat. 15630080), 1X GlutaMAX supplement (Thermo Fisher Scientific, cat. 35050061), 0.1 mg/mL primocin (InvivoGen, San Diego, CA, cat. ant-pm-2), 10% defined fetal bovine serum, heat inactivated (HyClone Laboratories Inc., Logan, UT, cat. SH30070.03HI), 50% L-WRN conditioned media (ATCC, cat. CRL-3276), 1.25 mM N-Acetyl-L-cysteine (Sigma-Aldrich, cat. A9165), 10 mM nicotinamide (Sigma-Aldrich, cat. N0636), 1X B-27 supplement (Thermo Fisher Scientific, cat. 17504044), 1X N-2 supplement (Thermo Fisher Scientific, cat. 17502048), 50 ng/mL human EGF (Thermo Fisher Scientific, cat. PHG0311), and 10 microM Y-27632 dihydrochloride (Tocris Bioscience, cat. 1254). The K12877-001-R-J1-PDC line was cultured in 6I media, which includes all 6C/Colon 1B media plus 10 ng/mL human FGF-10 (PeproTech, cat. 100-26), 1 ng/mL human FGF-2 (PeproTech, cat. 100-18B), 1 µM prostaglandin E2 (Tocris Bioscience, cat. 2296), […] hydrocortisone (Sigma-Aldrich, cat. H4001), and […] bovine insulin (Sigma-Aldrich, cat. I6634). The K86415-001-R-J1-PDC line was cultured in 6D media, which includes all 6C/Colon 1B media components minus the L-WRN conditioned media. The 485176-168-R4-J1-PDC was cultured in PANC media, which includes all 6C/Colon 1B media plus 100 ng/mL human FGF-10 (PeproTech, cat. 100-26), 500 nM SB-431542 (Selleckchem, cat. S1067), and 10 nM gastrin (Tocris Bioscience, cat. 3006). […]

[1] = second compound 0.0316 µM, first compound 0.0316 µM
[2] = second compound 0.0316 µM, first compound 0.1 µM
[3] = second compound 0.0316 µM, first compound 0.316 µM
[4] = second compound 0.0316 µM, first compound 1 µM
[5] = second compound 0.1 µM, first compound 0.0316 µM
[6] = second compound 0.1 µM, first compound 0.1 µM
[7] = second compound 0.1 µM, first compound 0.316 µM
[8] = second compound 0.1 µM, first compound 1 µM
[9] = second compound 0.316 µM, first compound 0.0316 µM
[10] = second compound 0.316 µM, first compound 0.1 µM
[11] = second compound 0.316 µM, first compound 0.316 µM
[12] = second compound 0.316 µM, first compound 1 µM
[13] = second compound 1 µM, first compound 0.0316 µM
[14] = second compound 1 µM, first compound 0.1 µM
[15] = second compound 1 µM, first compound 0.316 µM
[16] = second compound 1 µM, first compound 1 µM
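Also: spheroids exposed to compounds for seven days before readout.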
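For viability, T/C in this document: 100% = DMSO vehicle control viability.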

- pIC50 (second compound 0.00316 µM): < 6.00
- pIC50 (second compound 0.01 µM): < 6.00
- pIC50 (second compound 0.0316 µM): < 6.00
- pIC50 (second compound 0.1 µM): < 6.00
- pIC50 (second compound 0.316 µM): < 6.00
- pIC50 (second compound 1 µM): < 6.00
SMILES: CCN1CCN(Cc2ccc(Nc3ncc(F)c(-c4cc(F)c5nc(C)n(C(C)C)c5c4)n3)nc2)CC1 + C=CC(=O)N1CCN(c2nc(OCC3CCCN3C)nc3c(F)c(-c4nc(N)cc(C)c4C(F)(F)F)c(Cl)cc23)C(C)C1
- viability, T/C (second compound 0.00316 µM, first compound 0.00316 µM): 92.8%
- viability, T/C (second compound 0.00316 µM, first compound 0.01 µM): 137%
- viability, T/C (second compound 0.00316 µM, first compound 0.0316 µM): 93.5%
- viability, T/C (second compound 0.00316 µM, first compound 0.1 µM): 72.2%
- viability, T/C (second compound 0.00316 µM, first compound 0.316 µM): 82.8%
- viability, T/C (second compound 0.00316 µM, first compound 1 µM): 119%
- viability, T/C (second compound 0.01 µM, first compound 0.00316 µM): 101%
- viability, T/C (second compound 0.01 µM, first compound 0.01 µM): 134%
- viability, T/C (second compound 0.01 µM, first compound 0.0316 µM): 98.2%
- viability, T/C (second compound 0.01 µM, first compound 0.1 µM): 63%
- viability, T/C (second compound 0.01 µM, first compound 0.316 µM): 79.2%
- viability, T/C (second compound 0.01 µM, first compound 1 µM): 119%
- viability, T/C (second compound 0.0316 µM, first compound 0.00316 µM): 163%
- viability, T/C (second compound 0.0316 µM, first compound 0.01 µM): 144%
- viability, T/C [1]: 109%
- viability, T/C [2]: 77.1%
- viability, T/C [3]: 61%
- viability, T/C [4]: 103%
- viability, T/C (second compound 0.1 µM, first compound 0.00316 µM): 135%
- viability, T/C (second compound 0.1 µM, first compound 0.01 µM): 124%
- viability, T/C [5]: 83.1%
- viability, T/C [6]: 87.4%
- viability, T/C [7]: 61.1%
- viability, T/C [8]: 118%
- viability, T/C (second compound 0.316 µM, first compound 0.00316 µM): 141%
- viability, T/C (second compound 0.316 µM, first compound 0.01 µM): 136%
- viability, T/C [9]: 85%
- viability, T/C [10]: 100%
- viability, T/C [11]: 58.8%
- viability, T/C [12]: 116%
- viability, T/C (second compound 1 µM, first compound 0.00316 µM): 117%
- viability, T/C (second compound 1 µM, first compound 0.01 µM): 129%
- viability, T/C [13]: 89.5%
- viability, T/C [14]: 66%
- viability, T/C [15]: 78.2%
- viability, T/C [16]: 110%

- pIC50 (second compound 0.0316 µM): > 7.50
- pIC50 (second compound 0.1 µM): > 7.50
- pIC50 (second compound 0.316 µM): > 7.50
- pIC50 (second compound 1 µM): > 7.50
- pIC50 (second compound 3.16 µM): > 7.50
- pIC50 (second compound 10 µM): > 7.50
SMILES: CC(=O)OC12COC1CC(O)C1(C)C(=O)C(O)C3=C(C)C(OC(=O)C(O)C(NC(=O)OC(C)(C)C)c4ccccc4)CC(O)(C(OC(=O)c4ccccc4)C21)C3(C)C (centres undefined) + C#Cc1c(F)ccc2cc(O)cc(-c3ncc4c(N5CC6CCC(C5)N6)nc(OCC56CCCN5CC(F)C6)nc4c3F)c12
- viability, T/C [1]: 18.9%
- viability, T/C [2]: 20.3%
- viability, T/C [3]: 14.2%
- viability, T/C [4]: 19.1%
- viability, T/C (second compound 0.0316 µM, first compound 3.16 µM): 21.4%
- viability, T/C (second compound 0.0316 µM, first compound 10 µM): 27%
- viability, T/C [5]: 16.9%
- viability, T/C [6]: 20.3%
- viability, T/C [7]: 19.1%
- viability, T/C [8]: 15.5%
- viability, T/C (second compound 0.1 µM, first compound 3.16 µM): 18.8%
- viability, T/C (second compound 0.1 µM, first compound 10 µM): 29.8%
- viability, T/C [9]: 18.8%
- viability, T/C [10]: 21.2%
- viability, T/C [11]: 16.1%
- viability, T/C [12]: 18.1%
- viability, T/C (second compound 0.316 µM, first compound 3.16 µM): 22.8%
- viability, T/C (second compound 0.316 µM, first compound 10 µM): 30.4%
- viability, T/C [13]: 20%
- viability, T/C [14]: 21.3%
- viability, T/C [15]: 14.5%
- viability, T/C [16]: 17.3%
- viability, T/C (second compound 1 µM, first compound 3.16 µM): 24.9%
- viability, T/C (second compound 1 µM, first compound 10 µM): 26.6%
- viability, T/C (second compound 3.16 µM, first compound 0.0316 µM): 19.3%
- viability, T/C (second compound 3.16 µM, first compound 0.1 µM): 24.1%
- viability, T/C (second compound 3.16 µM, first compound 0.316 µM): 23.5%
- viability, T/C (second compound 3.16 µM, first compound 1 µM): 19.9%
- viability, T/C (second compound 3.16 µM, first compound 3.16 µM): 25.9%
- viability, T/C (second compound 3.16 µM, first compound 10 µM): 26.7%
- viability, T/C (second compound 10 µM, first compound 0.0316 µM): 17.7%
- viability, T/C (second compound 10 µM, first compound 0.1 µM): 23.9%
- viability, T/C (second compound 10 µM, first compound 0.316 µM): 22.1%
- viability, T/C (second compound 10 µM, first compound 1 µM): 23.1%
- viability, T/C (second compound 10 µM, first compound 3.16 µM): 21%
- viability, T/C (second compound 10 µM, first compound 10 µM): 22.4%

Source: PubChem BioAssay AID2060899 (Molecular Pharmacology Branch, DTP, NCI, 2025)
